Laboratory results as given in patent US20250213561A1, “SELECTIVE HYPOTHALAMUS PERMEABLE HDAC6 INHIBITORS FOR TREATMENT OF LEPTIN-RESISTANT OBESITY” (The Children’s Medical Center Corporation, priority 2022, published 2025).

What was measured:
Assay type in all cases: in vivo
DIO mice [1] = assay: Acute leptin co-treatment in DIO mice (body weight, food intake 15 h); settings: for body weight, leptin after pre-treatment with inhibitor: 3 days pre-treatment
Method: DIO mice were pretreated with ACY775 (10 mg/kg/day, i.p.) or vehicle for 3 days, which was followed by co-treatment with ACY775 (or vehicle) and leptin (1 mg/kg, i.p.) (or saline) (n=9 for each group), % change in body weight 15 h after leptin treatment, food intake (g) during the 15 h period after leptin treatment. The results in were reproduced in two independent experiments.
Diet induced obese (DIO) mice were pretreated with ACY775 (10 mg/kg/day, i.p.) or vehicle for 3 days, which was followed by co-treatment with ACY775 (or vehicle) and leptin (1 mg/kg, i.p.) (or saline) (n=9 for each group). Mice were evaluated for % change in body weight 15 h after leptin treatment, and food intake (g) during the 15 h period after leptin treatment.
DIO mice were pretreated with ricolinostat (25 mg/kg/day, i.p.) or vehicle for 3 days, which was followed by co-treatment with ricolinostat (or vehicle) and leptin (1 mg/kg, i.p.) (or saline) (n=32 for each group). Change in body weight 15 h after leptin treatment, and food intake (g) during the 15 h period after leptin treatment were determined. The results were reproduced in two independent experiments.

db/db mice = assay: Chronic treatment of db/db mice; settings: for ITT blood glucose: 2 weeks; for fasting blood glucose: after the first week
Method: Daily food intake (g), Serum leptin (ng/ml), lean mass (g), fat mass (g) and fat percentage (%) were measured after 3 weeks of treatment measured by DEXA scan. GTT was determined after 1 week of treatment. AOC analysis for GTT was performed and Blood glucose (mg/dl) levels were measured after 1 week of treatment. Blood glucose (mg/dl) levels and Serum insulin (ng/ml) levels were measured after 3 weeks of treatment. ITT was assessed after 2 weeks of treatment. H&E staining of the liver sections was conducted after 3 weeks of treatment.

DIO mice [2] = assay: Chronic treatment of DIO mice (body weight, food intake, DEXA, glucose homeostasis); settings: for hepatic steatosis (H&E liver): 3 weeks; for food intake: 3 weeks treatment; for glucose tolerance test (GTT): after 1 week; for HOMA-IR insulin resistance / serum insulin levels / serum leptin levels: after 3 weeks; for food intake and total body fat mass (summary): high fat diet induced mice
Method: DIO mice were treated with ACY775 (10 mg/kg/day, i.p.) for 3 weeks. Daily body weight (g) of DIO mice treated with vehicle (n=17) or ACY775 (n=17) during 3 weeks of treatment was determined. Daily food intake (g) during 3 weeks of vehicle or ACY775 treatment was assessed. 24 hours' food intake per mouse during the first week of vehicle or ACY775 treatment was determined. Serum leptin (ng/ml) levels after 3 weeks of vehicle (n=24) or ACY775 (n=24) treatment was assessed. Lean mass (g), fat mass (g) and fat percentage (%) after 3 weeks of vehicle (n=17) or ACY775 (n=17) treatment measured by Dual-energy X-ray absorptiometry (DEXA) scan. DEXA scans were performed in two different cohorts. Glucose tolerance test (GTT) after 1 week of vehicle (n=33) or ACY775 (n=26) treated DIO mice was assessed. Area of curve (AOC) analysis for GTT was performed. Blood glucose (mg/dl) levels after 1 week of vehicle (n=17) or ACY775 (n=16) were assessed in treated DIO mice. Insulin tolerance test (ITT) was performed after 2 weeks of vehicle (n=31) or ACY775 (n=21) treatment of DIO mice. Serum insulin (ng/ml) levels were measured after 3 weeks of vehicle (n=22) or ACY775 (n=21) in treated DIO mice. A homeostatic model assessment of insulin resistance (HOMA-IR) was analyzed after 3 weeks of vehicle (n=14) or ACY775 (n=13) treated DIO mice.
Food intake was analyzed hourly until 3:00 am. […] DEXA scans were performed in two different cohorts.
DIO mice then were treated with ricolinostat (50 mg/kg, i.p.) for 3 weeks. Daily body weight (g), daily food intake (g), serum leptin (ng/ml) levels after 3 weeks of vehicle (n-8) or ricolinostat (n=8) treatment, lean mass (g); fat mass and fat percentage (%) after 3 weeks of vehicle (n=16) or ricolinostat (n=17) treatment measured by DEXA scan were determined.
Blood glucose (mg/dl) levels were measured after 1 week of vehicle (n=16) or ricolinostat (n=16) treated DIO mice. GTT after 1 week of vehicle (n=17) or ricolinostat (n=16) treatment of DIO mice was assessed. AOC analysis for GTT was performed. ITT after 2 weeks of vehicle (n=17) or ricolinostat (n=16) treated DIO mice was measured. Serum insulin (ng/ml) levels after 3 weeks of vehicle (n=8) or ricolinostat (n=8) treatment were measured in DIO mice. Liver sections from 3 weeks of vehicle or ricolinostat treated DIO mice were stained by H&E.
DIO mice then were treated with bavarostat (10 mg/kg, i.p.) for 3 weeks and daily body weight (g) of DIO mice treated with Veh (n=9) or bavarostat (n=9) measured during the three weeks of treatment period. Daily food intake (g) during 3 weeks of Veh or bavarostat treatment was also measured.
ACY1083 was administered to DIO mice as described in Example 3.

[3] = leptin 1 mg/kg i.p., 15 h period

SMILES	body weight, agent alone (DIO mice [1]; 15 h, ACY775 10 mg/kg, ricolinostat 25 mg/kg, leptin 1 mg/kg i.p.)	food intake, agent alone (DIO mice [1]; 15 h period)	body weight, leptin after pre-treatment with inhibitor (DIO mice [1]; leptin 1 mg/kg i.p., 15 h)	food intake, leptin together with inhibitor (DIO mice [1]; [3])	food intake (db/db mice)	ITT blood glucose (db/db mice)	blood glucose lowering at end of treatment (db/db mice; 3 weeks)	fasting blood glucose (db/db mice)	hepatic steatosis (H&E liver) (DIO mice [2]; DIO mice)	food intake (DIO mice [2]; DIO mice)	glucose tolerance test (GTT) (DIO mice [2]; DIO mice)	HOMA-IR insulin resistance (DIO mice [2]; DIO mice)	serum insulin levels (DIO mice [2]; DIO mice)	serum leptin levels (DIO mice [2]; DIO mice)	daily food intake on treatment (DIO mice [2]; DIO mice, ACY775 10 mg/kg, ACY738 50 mg/kg i.p.) [g]	food intake and total body fat mass (summary) (DIO mice [2])	insulin tolerance test (ITT) (DIO mice [2]; DIO mice)
O=C(NO)c1cnc(NC2(c3cccc(F)c3)CCCCC2)nc1 [ACY775, 2-[[1-(3-fluorophenyl)cyclohexyl]amino]-N-hydroxy-5-pyrimidinecarboxamide]	significantly decreased the bodyweight	reduced the food intake	further reduction in bodyweight	further augmented the negative effect of leptin on food intake	transitionally reduced	no significant difference in blood glucose levels	completely diminished	lower in ACY775-treated mice than vehicle-treated mice	almost completely abolished hepatic steatosis	highly significant reduction	significantly improved glucose tolerance	significantly reduced the insulin resistance	significantly reduced the circulating insulin levels	significantly downregulated	0.85 ± 0.06	significant reduction of food intake and total body fat mass	
O=C(NO)c1cnc(NC2(c3ccccc3)CC2)nc1 [ACY738]			significantly augmented the acute leptin-induced reduction in body weight and food intake	significantly augmented the acute leptin-induced reduction in body weight and food intake	not affected	no significant difference in blood glucose levels		not affected	improved hepatic steatosis	severely reduced	significant improvement of glucose homeostasis	ameliorated insulin resistance	reduced insulin levels	significantly decreased		significant reduction of food intake and total body fat mass	improved insulin tolerance
